One assay concerns the target T1, NK1 (Oryctolagus cuniculus, UniProt G1SEI7).
T1 construct: The pulmonary arteries are isolated from the rest of the tissues and cut in half to serve as pairs; from tissue; host or cells: rabbit pulmonary artery rings, endothelium intact
Briefly: Rabbit Pulmonary Artery: NK1 In Vitro Functional Assay (Test C). Type of assay: cell-based. The settings on record: agonist ASMSP. The method, then: Rabbit Pulmonary Artery: NK1 In Vitro Functional Assay (Test C)
The ability of a Compound of the invention to antagonize the action of the agonist Ac-[Arg^6, Sar^9, Met(O2)^11]
Male New Zealand white rabbits are euthanized via i.v. injection into an ear vein with 60 mg/kg Nembutal (50 mg/mL). Preceding the Nembutal into the vein is Heparin (1000 units/mL) at 0.0025 ml/kg for anticoagulant purposes. The chest cavity is opened from the top of the rib cage to the sternum and the heart, lungs and part of the trachea are removed. The pulmonary arteries are isolated from the rest of the tissues and cut in half to serve as pairs.
The segments are suspended between stainless steel stirrups, so as not to remove any of the endothelium, and placed in water-jacketed (37° C.) tissue baths containing physiological salt solution of the following composition (mM): NaCl, 118.0; KCl, 4.7; CaCl2, 1.8; MgCl2, 0.54; NaH2PO4, 1.0; NaHCO3, 25.0; glucose, 11.0; indomethacin, 0.005(to inhibit cyclooxygenase); and dl-Propranolol, 0.00l(to block β receptors); gassed continuously with 95% O2-5% CO2. Responses are measured on a Grass polygraph via Grass FT-03 transducers and the electrical signals (data) acquired using a Mi^2 software/hardware system for subsequent conversion to measures of relaxation. […]

The next assay concerns the target T2, NK2 (Oryctolagus cuniculus, UniProt P79218).
T2 construct: The pulmonary arteries are isolated from the rest of the tissues, then rubbed over an intimal surface to remove the endothelium; from tissue; host or cells: rabbit pulmonary artery rings, endothelium removed
T2 sequence (P79218 1-384): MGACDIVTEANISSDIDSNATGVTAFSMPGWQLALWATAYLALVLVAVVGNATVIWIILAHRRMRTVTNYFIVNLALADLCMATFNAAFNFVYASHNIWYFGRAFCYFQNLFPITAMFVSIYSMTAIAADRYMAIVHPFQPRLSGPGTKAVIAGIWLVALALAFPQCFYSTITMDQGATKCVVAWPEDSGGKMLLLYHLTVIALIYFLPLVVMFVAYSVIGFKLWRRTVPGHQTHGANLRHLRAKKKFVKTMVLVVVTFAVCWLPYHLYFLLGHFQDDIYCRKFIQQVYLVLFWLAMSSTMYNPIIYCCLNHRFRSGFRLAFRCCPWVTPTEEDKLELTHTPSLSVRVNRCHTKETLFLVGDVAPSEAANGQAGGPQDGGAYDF
Briefly: Rabbit Pulmonary Artery: NK2 In Vitro Functional Assay (Test D). Type of assay: cell-based. The settings on record: agonist BANK; -log molar KB; read-out: Rabbit Pulmonary Artery NK2 pKb (Test D) (converted). The method, then:
NK2 In Vitro Functional Assay (Test D)
The ability of a Compound of the invention to antagonize the action of the agonist [β-ala^8] […] Male New Zealand white rabbits are euthanized via i.v. injection into an ear vein with 60 mg/kg Nembutal (50 mg/mL). Preceding the Nembutal into the vein is Heparin (1000 units/mL) at 0.0025 mL/kg for anticoagulant purposes. The chest cavity is opened from the top of the rib cage to the stemum and a small incision is made into the heart so that the left and right pulmonary arteries can be cannulated with polyethylene tubing (PE260 and PE190 respectively). […] Responses are measured on a Grass polygraph via Grass FT-03 transducers and the electrical signals (data) acquired using a Mi^2 software/hardware system for subsequent conversion to measures of contraction. […]
For non-competitive antagonists, the percent inhibition of contraction is determined at a given concentration of the antagonist Percent inhibition is determined when a tested Compound produces a statistically significant (p<0.05) reduction of the total contraction which is calculated using the total contraction as a percent of the control value. Potencies of competitive Compounds are determined by calculating the apparent dissociation constants (KB) for each concentration tested using the standard equation: […]

The target in another assay is T3, NK1 receptors (Cavia porcellus, UniProt P30547).
T3 construct: from tissue; host or cells: whole anesthetized guinea pig (airways)
Briefly: NK1 In Vivo Functional Assay (Test E), agonist-induced bronchoconstriction in anesthetized guinea pigs. As to conditions: 120 minutes prior to agonist ASMSP, Dose Ratio of ED50 in presence/absence of antagonist. Set-up: species or system guinea pig. As for the experimental part:
NK1 and NK2 In Vivo Functional Assay (Test E)
Exp. Ther., 1993, Vol 267(3), pp 1168-1175. The assay is carried out as follows.
Compounds are tested in anesthetized guinea pigs pretreated with i.v. indomethacin (10 mg/kg, 20 min.), propranolol (0.5 mg/kg, 15 min.), and thiorphan (10 mg/kg, 10 min).
Antagonists or vehicle are administered i.v. and orally, 30 and 120 minutes prior to increasing concentrations of agonist, respectively. The agonists used in these studies are ASMSP (Ac-[Arg^6,Sar^9,Met(O2)^11]-SP(6-11)) and BANK (β-ala-8 NKA4-10).
Administered i.v., ASMSP is selective for NK1 receptors, and BANK is selective for NK2 receptors. Maximum response is defined as zero conductance (GL, 1/Rp). ED50 values are calculated (the dose of agonist resulting in a reduction of GL to 50% of baseline), and converted to the negative logarithm (−logED50). The ED50 values, obtained in the presence (P) and absence (A) of antagonist, are used to calculate a Dose Ratio (P/A), an expression of potency. Data are expressed as mean±SEM and statistical differences were determined using ANOVA/Tukey-Kramer and Student's t-test , with p<0.05 considered statistically significant.

T3 sequence (P30547 whole entry): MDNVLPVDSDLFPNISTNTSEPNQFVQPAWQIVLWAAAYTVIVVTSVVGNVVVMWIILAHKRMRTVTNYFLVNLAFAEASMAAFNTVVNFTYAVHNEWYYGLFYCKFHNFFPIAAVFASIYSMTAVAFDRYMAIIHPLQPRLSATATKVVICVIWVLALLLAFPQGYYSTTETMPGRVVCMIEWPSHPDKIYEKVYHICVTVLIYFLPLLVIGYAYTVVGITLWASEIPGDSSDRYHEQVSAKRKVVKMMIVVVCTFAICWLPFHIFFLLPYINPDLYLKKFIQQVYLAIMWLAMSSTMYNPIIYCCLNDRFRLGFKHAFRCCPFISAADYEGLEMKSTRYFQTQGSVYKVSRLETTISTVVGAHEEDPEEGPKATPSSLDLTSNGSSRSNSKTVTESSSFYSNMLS
T1 sequence (G1SEI7 1-407): as the sequence (P30547 whole entry) above, with G176S, S186E, A329G, F342L, D368E, P369A, T376N, V395M, S399F counted along it

On to `COc1c(C#N)cc2c(c1C(=O)N(C)C[C@@H](CCN1CCC(c3ccccc3[S@+](C)[O-])CC1)c1ccc(Cl)c(Cl)c1)CCCC2` [Example 5, N-[(S)-2-(3,4-Dichlorophenyl)-4-[4-[(S)-2-methylsulfinylphenyl]-1-piperidinyl]butyl]-N-methyl-3-cyano-2-methoxy-5,6,7,8-tetrahydro-1-naphthamide], for which, at NK1 (inhibition of relaxation at 10^−8 M), the inhibition at 0.01 µM was 74%. Further, the Kb at NK2 was 79.4 nM. On NK1 receptors, the “Oral Activity (Test E) NK1 P/A” value came out at 454.

On to `CN(C[C@@H](CCN1CCC(c2ccccc2[S@+](C)[O-])CC1)c1ccc(Cl)c(Cl)c1)C(=O)c1cc(C#N)cc2c1CCCC2` [Example 6, N-[2-(S)-(3,4-Dichlorophenyl)4-[-4-[(S)-2-(methylsulfinyl)phenyl]-1-piperidinyl]butyl]-N-methyl-3-cyano-5,6,7.8-tetrahydro-1-naphthamide], for which the Kb at NK1 (-log molar KB, read-out: Rabbit Pulmonary Artery NK1 pKb (Test C) (converted)) is 5.01 nM; at NK2 it was 25.1 nM. Besides, on NK1 receptors, the “Oral Activity (Test E) NK1 P/A” value is reported as 147.

Source of the values: patent US6403601B1, “N-(2-phenyl-4-piperidinybutyl)-5,6,7,8-tetrahydro-1-naphthalenecarboxamides and their use as neurokinin 1 (NK1) and/or neurokinin 2 (NK2) receptor antagonists” (Astrazeneca AB, priority 1998, dated 2002).
